Reference: PMC8619593 (Pharmaceuticals, 2021)
In brackets after ≈: the same amount, converted by molar mass. Several values for one entry are separate records, joined by “and”; a condition that tells them apart may be missing. Equal values may be shown once. Entries after “also recorded” stand apart in the source; their conditions may differ. Read-outs that look alike come from different tables or passages of the source.

Legend:
[1] = target: 3CLPro (Severe acute respiratory syndrome coronavirus 2, UniProt P0DTD1); experiment: 3CLPro FRET-based inhibition assay; assay type: biochemical, SARS-CoV-2; settings: for IC50: FRET, 600 nM 3CLPro, 250 nM substrate; for inhibition at 100 µM: read-out: 3CLPro inhibition
[2] = tested on: Vero E6 cells; settings: dilutions from 100 µM
[3] = tested on: SARS-CoV-2; experiment: Viral RNA reduction assay (ddPCR) in Vero E6 cells, MOI 0.01; settings: for SARS-CoV-2 RNA Reduction, activity at 50 µM: MOI 0.01, tested at 50 µM; for EC50: read-out: SARS-CoV-2 RNA Reduction EC50; for Therapeutic Index CC50/EC50: calculated from RNA reduction EC50 values
[4] = target: T1, Human recombinant cathepsin B (exopeptidase activity) (Homo sapiens, UniProt P07858); experiment: Cathepsin B exopeptidase inhibition assay; assay type: biochemical
T1 construct: The Preparation of Catalytically Active Human Cathepsin B from Its Precursor Expressed in Escherichia coli; made in house; host or cells: Escherichia coli

[5] = tested on: Bacillus subtilis ATCC 6633; experiment: Broth microdilution MIC; settings: ATCC6633, 24 h
[6] = target: Human recombinant cathepsin L (Homo sapiens, UniProt P07711); experiment: Cathepsin L inhibition assay; assay type: biochemical
[7] = tested on: Staphylococcus aureus MSSA ATCC 29213; experiment: Broth microdilution MIC
[8] = tested on: SARS-CoV-2; experiment: microbe, parasite or virus in culture; assay type: cell-based; settings: Vero E6 cells, read-out: SARS-CoV-2 IFA, EC50
[9] = tested on: Enterococcus faecalis ATCC 29212; experiment: Broth microdilution MIC; settings: ATCC29212, 24 h
[10] = tested on: Enterococcus faecalis ATCC 51299 VanB; experiment: Broth microdilution MIC
[11] = tested on: Staphylococcus aureus MRSA ATCC 33591; experiment: Broth microdilution MIC
[12] = in vitro; settings: African green monkey
[13] = tested on: SARS-CoV-2; experiment: microbe, parasite or virus in culture; assay type: cell-based; settings: Vero E6 cells, MOI 0.04, three days, XTT, read-out: SARS-CoV-2 CPE, EC50
[14] = tested on: Staphylococcus epidermidis mecA; experiment: Broth microdilution MIC; settings: 24 h
[15] = tested on: Enterococcus faecalis 15376 VanA; experiment: Broth microdilution MIC; settings: 24 h
[16] = tested on: Staphylococcus epidermidis ATCC 35984 biofilm; experiment: Broth microdilution MIC
[17] = parameters: method as in PMID 32625627; settings: cited from earlier work
[18] = tested on: SARS-CoV-2
[19] = tested on: SARS-CoV-1; settings: read-out: IC50 for blocking SARS-CoV-1 entry; cited from earlier work
[20] = tested on: SARS-CoV-2; settings: read-out: IC50 for blocking SARS-CoV-2 entry; cited from earlier work
[21] = pH 5.5, substrate Z-Phe-Arg-AMC; read-out: Cathepsin L IC50
[22] = Enterococcus faecalis, ATCC51299, 24 h
[23] = Severe acute respiratory syndrome coronavirus 2, Vero C1008, 48 h
[24] = Severe acute respiratory syndrome coronavirus 2, Vero C1008, 72 h
[25] = Enterococcus faecalis, 15376VANA
[26] = Staphylococcus epidermidis, ATCC35984, 24 h
[27] = read-out: Exopeptidase Cathepsin B IC50; pH 5.0, substrate Abz-Gly-Ile-Val-Arg-Ala-Lys(Dnp)-OH
[28] = read-out: Cathepsin L IC50; pH 5.5, substrate Z-Phe-Arg-AMC

Human recombinant cathepsin L, sequence (P07711 114-333): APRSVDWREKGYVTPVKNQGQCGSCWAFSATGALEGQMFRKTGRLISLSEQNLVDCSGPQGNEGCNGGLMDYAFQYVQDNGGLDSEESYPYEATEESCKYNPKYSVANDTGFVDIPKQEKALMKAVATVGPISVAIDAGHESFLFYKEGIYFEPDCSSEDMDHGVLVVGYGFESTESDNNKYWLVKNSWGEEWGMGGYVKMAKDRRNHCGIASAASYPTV

Row | Molecule | IC50 [1] [µM] | CC50 [2] [µM] | MIC [5] [µg/mL] | MIC ([7]; Staphylococcus aureus, 24 h) [µg/mL] | MIC [9] [µg/mL] | MIC [10, 22] [µg/mL] | MIC ([11]; Staphylococcus aureus, 24 h) [µg/mL] | MIC ([14]; Staphylococcus epidermidis) [µg/mL] | MIC [15, 25] [µg/mL] | MIC [16, 26] [µg/mL] | IC50 [4, 27] [µM] | IC50 [6, 28] [µM] | Therapeutic Index CC50/EC50 [18] | further results
1 | CC(/C=C/C=C(C)/C=C/C(=O)O)=C\C=C\C=C(C)\C=C\C=C(C)\C=C\C(=O)O (stereo in doubt) [Compound 1d, norbixin] | 36.1 ± 11.7 | > 100 |  |  |  |  |  |  |  |  |  |  |  | SARS-CoV-2 RNA Reduction, activity at 50 µM ([3]; Vero E6 cells): completely inactive; SARS-CoV-2 RNA Reduction, activity at 50 µM ([3]; Vero E6 cells, listed as 1d (norbixin)): not active at 50 µM
2 | COC(=O)/C=C/C(C)=C\C=C\C(C)=C\C=C\C=C(C)\C=C\C=C(C)\C=C\C(=O)O [Compound 1a, Bixin, reference compound] |  |  | 512 (≈ 1300 µM) | 512 (≈ 1300 µM) | 512 (≈ 1300 µM) | 512 (≈ 1300 µM) | 512 (≈ 1300 µM) | 512 (≈ 1300 µM) | 512 (≈ 1300 µM) | 512 (≈ 1300 µM) |  |  |  | IC50 ([4]; pH 5.0, substrate Abz-Gly-Ile-Val-Arg-Ala-Lys(Dnp)-OH; read-out: Exopeptidase Cathepsin B IC50): 14.6 ± 1.71 µM; inhibition at 100 µM [1]: 56%; IC50 [6, 21]: 41.9 ± 1.12 µM; EC50 ([8]; Severe acute respiratory syndrome coronavirus 2, Vero C1008, 72 h, MOI 0.04, three days, dilutions from 100 µM): 28 ± 8.8 µM; CC50 [12]: > 100 µM; EC50 [3, 23]: 5.9 ± 1.7 µM; Therapeutic Index CC50/EC50 [3]: >17; EC50 [13, 24]: 14 ± 3.5 µM; acceptable daily intake [17]: 6 mg/kg body weight
3 | COC(=O)/C(C)=C/C=C/C(C)=C/C=C/C=C(C)/C=C/C=C(\C)C(=O)O [Compound 1b, crocetin monomethyl ester] |  |  |  |  |  |  |  |  |  |  |  |  |  | inhibition at 100 µM [1]: 24%; melting point: 204 to 205 °C; SARS-CoV-2 RNA Reduction, activity at 50 µM ([3]; Vero E6 cells): did not show antiviral activity; also recorded: not active at 50 µM
4 | CC1=C(/C=C/C(C)=C/C=C/C(C)=C/C=C/C=C(C)/C=C/C=C(\C)C(=O)O)C(C)(C)CCC1 [Compound 1c, β-apo-8′-carotenoic acid] | 73 ± 7.1 |  |  |  |  |  |  |  |  |  |  |  |  | IC50 ([4]; read-out: Exopeptidase Cathepsin B IC50): 21.3 ± 1.2 µM; IC50 [6, 21]: 76 ± 1.74 µM; EC50 ([8]; Severe acute respiratory syndrome coronavirus 2, Vero C1008, MOI 0.04, * measurement from 50 µM): 31 ± 7.9 µM; melting point: 194 to 195 °C; CC50 at 3 days [12]: > 100 µM; EC50 [3, 23]: 15 ± 2 µM; Therapeutic Index CC50/EC50 [3]: >6.7; EC50 [13, 24]: 14 ± 2.2 µM
5 | CC(=O)N[C@H]1[C@H](O[C@@H]2c3ccc(c(Cl)c3)Oc3cc4cc(c3O)Oc3ccc(cc3Cl)C[C@H]3NC(=O)[C@H](N)c5ccc(O)c(c5)Oc5cc(O)cc(c5)[C@H](NC3=O)C(=O)N[C@H]4C(=O)N[C@H]3C(=O)N[C@@H]2C(=O)N[C@H](C(=O)O)c2cc(O)cc(O)c2-c2cc3ccc2O)O[C@H](CO)[C@@H](O)[C@@H]1O [Compound 2, Teicoplanin pseudoaglycone] |  |  |  |  |  |  |  |  |  |  |  |  |  | inhibition at 50 µM ([4]; read-out: Exopeptidase Cathepsin B relative inhibition): 7.8%; inhibition at 200 µM ([1]; at 200 μM): 34%; inhibition at 50 µM ([6]; read-out: Cathepsin L relative inhibition): 0.04%
6 | COC(=O)/C=C/C(C)=C\C=C\C(C)=C\C=C\C=C(C)\C=C\C=C(C)\C=C\C(=O)N[C@H]1C(=O)N[C@@H]2Cc3ccc(c(Cl)c3)Oc3cc4cc(c3O)Oc3ccc(cc3Cl)[C@@H](O[C@@H]3O[C@H](CO)[C@@H](O)[C@H](O)[C@H]3NC(C)=O)[C@@H]3NC(=O)[C@H](NC(=O)[C@@H]4NC(=O)[C@@H](NC2=O)c2cc(O)cc(c2)Oc2cc1ccc2O)c1ccc(O)c(c1)-c1c(O)cc(O)cc1[C@@H](C(=O)O)NC3=O [Compound 5a] | 13.9 ± 1.73 | > 100 | 32 (≈ 18 µM) | 16 (≈ 9 µM) | 16 (≈ 9 µM) | 16 (≈ 9 µM) | 0.5 (≈ 0.281 µM) | 16 (≈ 9 µM) | 16 (≈ 9 µM) | 0.5 (≈ 0.281 µM) | 47.9 ± 1.07 | 42.4 ± 1.86 | >17 | 
7 | COC(=O)/C(C)=C/C=C/C(C)=C/C=C/C=C(C)/C=C/C=C(\C)C(=O)N[C@H]1C(=O)N[C@@H]2Cc3ccc(c(Cl)c3)Oc3cc4cc(c3O)Oc3ccc(cc3Cl)[C@@H](O[C@@H]3O[C@H](CO)[C@@H](O)[C@H](O)[C@H]3NC(C)=O)[C@@H]3NC(=O)[C@H](NC(=O)[C@@H]4NC(=O)[C@@H](NC2=O)c2cc(O)cc(c2)Oc2cc1ccc2O)c1ccc(O)c(c1)-c1c(O)cc(O)cc1[C@@H](C(=O)O)NC3=O [Compound 5b] |  | > 100 | 16 (≈ 9.27 µM) | 8 (≈ 4.63 µM) | 4 (≈ 2.32 µM) | 8 (≈ 4.63 µM) | 2 (≈ 1.16 µM) | 2 (≈ 1.16 µM) | 8 (≈ 4.63 µM) | 0.5 (≈ 0.29 µM) | 99.5 ± 1.16 | 103 ± 1.12 | >19.2 | 
8 | CC(=O)NC1C(OC2c3ccc(c(Cl)c3)Oc3cc4cc(c3O)Oc3ccc(cc3Cl)CC3NC(=O)C(NC(=O)C(C)=CC=CC(C)=CC=CC=C(C)C=CC=C(C)C=CC5=C(C)CCCC5(C)C)c5ccc(O)c(c5)Oc5cc(O)cc(c5)C(NC3=O)C(=O)NC4C(=O)NC3C(=O)NC2C(=O)NC(C(=O)O)c2cc(O)cc(O)c2-c2cc3ccc2O)OC(CO)C(O)C1O (stereo not shown) [Compound 5c] | 34.5 ± 12.5 | > 100 | 16 (≈ 8.81 µM) | 8 (≈ 4.4 µM) | 4 (≈ 2.2 µM) | 8 (≈ 4.4 µM) | 1 (≈ 0.55 µM) | 0.5 (≈ 0.275 µM) | 8 (≈ 4.4 µM) | 0.5 (≈ 0.275 µM) | 56.5 ± 1.06 | 47.1 ± 1.05 | >22.7 | 
9 | COC(=O)/C=C/C(C)=C\C=C\C(C)=C\C=C\C=C(C)\C=C\C=C(C)\C=C\C(=O)N[C@H]1C(=O)N[C@H]2C(=O)N[C@H](C(=O)N[C@H]3C(=O)N[C@H]4C(=O)N[C@H](C(=O)N[C@H](C(=O)OC)c5cc(O)cc(O)c5-c5cc4ccc5O)[C@H](O)c4ccc(cc4)Oc4cc3cc(c4O)Oc3ccc(cc3)[C@H]2O)c2cc(O)c(C)c(c2)Oc2cc1ccc2O [Compound 7] |  |  | 32 (≈ 20.6 µM) | 64 (≈ 41.3 µM) | 32 (≈ 20.6 µM) | 64 (≈ 41.3 µM) | 64 (≈ 41.3 µM) | 64 (≈ 41.3 µM) | 256 (≈ 165 µM) | 64 (≈ 41.3 µM) |  |  |  | 
10 | teicoplanin [Compound 3, reference compound] |  | > 100 | 0.5 |  | 2 |  |  |  |  |  |  |  |  | Exopeptidase Cathepsin B relative inhibition ([4]; at 50 μM): 0.45% at 50 μM; 3CLPro inhibition ([1]; at 200 μM): 13% at 200 μM; Cathepsin L relative inhibition ([6]; at 50 μM): 5.07% at 50 μM; Cathepsin L relative inhibition ([6]; at 50 μM; listed as teicoplanin): 5%; MIC ([7]; Staphylococcus aureus MSSA ATCC 29213, 24 h): 0.5 µg/mL; EC50 ([8]; MOI 0.04, three days, dilutions from 100 µM): 18 ± 5.4 µM; MIC ([10]; Enterococcus faecalis ATCC 51299 VanB, 24 h): 4 µg/mL; IC50 [19]: 3.76 µM; MIC ([11]; Staphylococcus aureus MRSA ATCC 33591, 24 h): 0.5 µg/mL; EC50 ([3]; Vero E6 cells, MOI 0.01, 48 h, ddPCR of supernatant): 5.6 ± 1.3 µM; EC50 [13]: 15.7 µM and 16 µM; MIC ([14]; Staphylococcus epidermidis mecA): 16 µg/mL; IC50 [20]: 1.66 µM; MIC ([15]; Enterococcus faecalis 15376 VanA): 256 µg/mL; MIC ([16]; Staphylococcus epidermidis ATCC 35984 biofilm, 24 h): 2 µg/mL
